Experimental data reported in patent US20210154472A1, “ELECTRICALLY RESPONSIVE, NANOPATTERNED SURFACE FOR TRIGGERED INTRACELLULAR DELIVERY OF BIOLOGICALLY ACTIVE MOLECULES” (Yissum Research Development Company of the Hebrew …, priority 2019, published 2021).

Test system: NIH3T3 fibroblast cells
Assay: Dox internalization in cells incubated in Dox solution (FIG. 7)
Format: cell-based, mice
Conditions: cells incubated 24 and 36 h in 17 μM Dox solution
Experimental: FIGS. 7A-D provide (A,B) Overlaid optical microscopy and fluorescence images (λex=481 nm) showing extent of Dox internalization in NIH3T3 fibroblast cells after 24 and 36 h incubation in 17 μM Dox solution (for comparison, the Dox concentration that was released from 1-cm^2 nano-patterned PEM to 1-mL solution was ˜14 μM as shown in FIG. 4F). Cells were cultured for 2 days prior to incubation.

SMILES: COc1cccc2c1C(=O)c1c(O)c3c(c(O)c1C2=O)C[C@@](O)(C(=O)CO)C[C@@H]3O[C@H]1C[C@H](N)[C@H](O)[C@H](C)O1 [Dox, doxorubicin]
- time for the drug to penetrate the cell membrane, versus release from PEM: much longer time was needed
